Reference: ChEMBL document CHEMBL1212769, “Multiple-dose safety, tolerability, and pharmacokinetics of oral nemonoxacin (TG-873870) in healthy volunteers” (Antimicrob Agents Chemother, 2010)

Columns and labels:
[1] = AUC (0 to 24 hrs) in human at 250 mg/kg, po measured on day 1; assay type: ADME, organism-based; parameters: time < 24 hr, dose 250 mg/kg, route oral; conditions: plasma
Homo sapiens [2] = experiment: Toxicity in human assessed as occurrence of abdominal pain at 500 […], po administered as single dose; assay type: organism-based, Abdomen; parameters: route oral; conditions: in vivo
[3] = Oral clearance in human at 750 […] measured on day 1; assay type: ADME, organism-based; conditions: in vivo
[4] = Tmax in human at 75 […], po measured on day 10; assay type: ADME, organism-based; parameters: dose 75 mg/kg, route oral; conditions: in vivo
[5] = Clearance in human assessed as compound recovered in urine at 750 mg/kg, po measured on day 10 up to 24 hrs post dose; assay type: ADME, organism-based; parameters: dose 750 mg/kg, route oral; conditions: read-out: amount in urine
[6] = Terminal half life in human at 750 […], po measured on day 10; assay type: ADME, organism-based; parameters: route oral; conditions: in vivo, read-out: beta t1/2 (converted)
[7] = Oral clearance in human at 500 mg/kg measured on day 16; assay type: ADME, organism-based; parameters: dose 500 mg/kg; conditions: in vivo
[8] = Clearance in human assessed as compound recovered in urine at 75 mg/kg, po measured on day 10 up to 24 hrs post dose; assay type: ADME, organism-based; parameters: dose 75 mg/kg, route oral; conditions: read-out: amount in urine
Homo sapiens [9] = experiment: Toxicity in human assessed as occurrence of dermatitis at 250 […], po administered as single dose; assay type: organism-based; parameters: route oral; conditions: in vivo
[10] = Cmax in human at 250 […], po measured on day 1; assay type: ADME, organism-based; parameters: dose 250 mg/kg, route oral; conditions: in vivo
Homo sapiens [11] = experiment: Toxicity in human assessed as occurrence of abdominal pain at 1000 […], po administered as single dose; assay type: organism-based, Abdomen; parameters: route oral; conditions: in vivo
[12] = Cmax in human at 750 […], po measured on day 1; assay type: ADME, organism-based; parameters: dose 750 mg/kg, route oral; conditions: in vivo
[13] = Clearance in human assessed as compound recovered in urine at 500 mg/kg, po measured on day 1 up to 24 hrs post dose; assay type: ADME, organism-based; parameters: dose 500 mg/kg, route oral; conditions: read-out: amount in urine
Homo sapiens [14] = experiment: Toxicity in human assessed as occurrence of pruritus at 250 […], po administered as single dose; assay type: organism-based; parameters: route oral; conditions: in vivo
Homo sapiens [15] = experiment: Toxicity in human assessed as incidence of headache at 1000 […], po administered as single dose; assay type: organism-based; parameters: route oral; conditions: in vivo
[16] = AUC (0 to 24 hrs) in human at 1000 […], po measured on day 10; assay type: ADME, organism-based; parameters: time < 24 hr, dose 1000 mg/kg, route oral; conditions: plasma
[17] = Cmax in human at 500 […], po measured on day 16; assay type: ADME, organism-based; parameters: dose 500 mg/kg, route oral; conditions: in vivo
[18] = Clearance in human assessed as compound recovered in urine at 1000 […], po measured on day 1 up to 24 hrs post dose; assay type: ADME, organism-based; parameters: dose 1000 mg/kg, route oral; conditions: read-out: amount in urine
[19] = Renal clearance in human at 250 […], po measured on day 10; assay type: ADME, organism-based, Kidney; parameters: route oral; conditions: in vivo, read-out: CL_renal (converted)
Homo sapiens [20] = experiment: Toxicity in human assessed as occurrence of pruritus at 500 […], po administered as single dose; assay type: organism-based; parameters: route oral; conditions: in vivo
[21] = Renal clearance in human at […], po measured on day 10; assay type: ADME, organism-based, Kidney; conditions: in vivo, read-out: CL_renal (converted)
Homo sapiens [22] = experiment: Toxicity in human assessed as occurrence of rashes at 75 […], po administered as single dose; assay type: organism-based; parameters: route oral; conditions: in vivo
[23] = Oral clearance in human at 1000 […] measured on day 10; assay type: ADME, organism-based; parameters: dose 1000 mg/kg; conditions: in vivo
[24] = AUC (0 to last) in human at 750 mg/kg, po measured on day 1; assay type: ADME, organism-based; parameters: dose 750 mg/kg, route oral, time 0 - last; conditions: plasma
Homo sapiens [25] = experiment: Toxicity in human assessed as occurrence of diarrhea at […], po administered as single dose; assay type: organism-based; parameters: route oral; dose or concentration left out as unconfirmed; conditions: in vivo
[26] = Oral clearance in human at 1000 […] measured on day 1; assay type: ADME, organism-based; parameters: dose 1000 mg/kg; conditions: in vivo
Homo sapiens [27] = experiment: Toxicity in human assessed as occurrence of pollakiuria at 250 […], po administered as single dose; assay type: organism-based; parameters: route oral; conditions: in vivo
[28] = Oral clearance in human at 750 […] measured on day 10; assay type: ADME, organism-based; conditions: in vivo
[29] = Cmax in human at 75 […], po measured on day 1; assay type: ADME, organism-based; parameters: dose 75 mg/kg, route oral; conditions: in vivo

Question: Which AUC(0-t) at 24 h [1] does the source give for `COc1c(N2C[C@@H](C)C[C@H](N)C2)ccc2c(=O)c(C(=O)O)cn(C3CC3)c12` [NEMONOXACIN] here?
Answer: 13700 ng·h/mL

Question: What about the Activity (Homo sapiens [2]) of the same compound?
Answer: 0%

Question: And the CL/F [3]?
Answer: 252 mL/min

Question: What about the Tmax [4] of the same compound?
Answer: 0.92 h

Question: What about the dose excreted at 24 h [5] of the same compound?
Answer: 41.8%

Question: And the half-life [6]?
Answer: 19.7 h

Question: And the CL/F [7]?
Answer: 313 mL/min

Question: And the dose excreted at 24 h [8]?
Answer: 56.7%

Question: What about the Activity (Homo sapiens [9]) of the same compound?
Answer: 0%

Question: And the Cmax [10]?
Answer: 2000 ng/mL

Question: What about the Activity (Homo sapiens [11]) of the same compound?
Answer: 0%

Question: What about the Cmax [12] of the same compound?
Answer: 5750 ng/mL

Question: What about the dose excreted at 24 h [13] of the same compound?
Answer: 42.2%

Question: What about the Activity (Homo sapiens [14]) of the same compound?
Answer: 0%

Question: And the Activity (Homo sapiens [15])?
Answer: 0%

Question: And the AUC at 24 h [16]?
Answer: 74800 ng·h/mL

Question: What about the Cmax [17] of the same compound?
Answer: 2750 ng/mL

Question: What about the dose excreted at 24 h [18] of the same compound?
Answer: 47.9%

Question: What about the CL renal [19] of the same compound?
Answer: 129 mL/min

Question: What about the Activity (Homo sapiens [20]) of the same compound?
Answer: 0%

Question: And the CL renal [21]?
Answer: 93.8 mL/min

Question: And the Activity (Homo sapiens [22])?
Answer: 0%

Question: And the CL/F [23]?
Answer: 193 mL/min

Question: What about the AUC(0-t) [24] of the same compound?
Answer: 46000 ng·h/mL

Question: And the Activity (Homo sapiens [25])?
Answer: 0%

Question: And the CL/F [26]?
Answer: 262 mL/min

Question: What about the Activity (Homo sapiens [27]) of the same compound?
Answer: 0%

Question: What about the CL/F [28] of the same compound?
Answer: 189 mL/min

Question: And the Cmax [29]?
Answer: 502 ng/mL
